The NIST ThermoML archive (doi:10.1021/je1005483)
Numbers after ± are expanded uncertainties.

Assays:
[1] = molar heat capacity at constant pressure; xn = mol fraction of the nth substance listed; conditions: 298.15 K, 101.3 kPa, Liquid, Flow calorimetry
[2] = xn = mol fraction of the nth substance listed; conditions: 101.3 kPa, Liquid; for speed of sound: 298.15 K

CC1COC(=O)O1 (configuration not stated) [4-methyl-1,3-dioxolan-2-one] + CC#N
Conditions | molar heat capacity at constant pressure, [1] [J/K/mol] | speed of sound, [2] [m/s]
x1 = 0.02042 | 93.86 ± 0.58 | –
x1 = 0.04818 | 95.91 ± 0.59 | –
x1 = 0.0502 | – | 1287.5 ± 2.7
x1 = 0.08041 | 98.29 ± 0.61 | –
x1 = 0.09602 | 99.45 ± 0.61 | –
x1 = 0.1021 | 99.9 ± 0.62 | –
x1 = 0.1022 | – | 1296.4 ± 2.7
x1 = 0.1298 | 101.95 ± 0.63 | –
x1 = 0.1438 | 103 ± 0.64 | –
x1 = 0.1512 | – | 1305.1 ± 2.7
x1 = 0.1521 | 103.61 ± 0.64 | –
x1 = 0.1801 | 105.69 ± 0.65 | –
x1 = 0.193 | 106.65 ± 0.66 | –
x1 = 0.1988 | 107.08 ± 0.66 | –
x1 = 0.2006 | – | 1313.9 ± 2.7
x1 = 0.3006 | 114.62 ± 0.71 | –
x1 = 0.3031 | – | 1331 ± 2.7
x1 = 0.3051 | – | 1331.6 ± 2.7
x1 = 0.3994 | 121.92 ± 0.75 | –
x1 = 0.4046 | – | 1351.6 ± 2.8
x1 = 0.4507 | 125.72 ± 0.78 | –
x1 = 0.4508 | 125.72 ± 0.78 | –
x1 = 0.5067 | – | 1369 ± 2.8
x1 = 0.5997 | 136.77 ± 0.84 | –
x1 = 0.5999 | 136.78 ± 0.84 | –
x1 = 0.6088 | – | 1386.6 ± 2.8
x1 = 0.6973 | 144.05 ± 0.89 | –
x1 = 0.7035 | – | 1399.3 ± 2.9
x1 = 0.7037 | – | 1399.4 ± 2.9
x1 = 0.7485 | 147.88 ± 0.91 | –
x1 = 0.7494 | 147.94 ± 0.91 | –
x1 = 0.7986 | – | 1415.1 ± 2.9
x1 = 0.856 | – | 1422.3 ± 2.9
x1 = 0.8995 | 159.26 ± 0.98 | –
x1 = 0.9004 | 159.33 ± 0.98 | –
x1 = 0.9052 | – | 1427.8 ± 2.9
x1 = 0.9518 | – | 1434.5 ± 2.9
x1 = 0.9766 | – | 1438 ± 2.9
x1 = 1 | 166.98 ± 1 | 1443 ± 2.9

mass density [kg/m3], [2]
Conditions | 308.15 K | 318.15 K
x1 = 0.00899 | 772.153 ± 0.37 | –
x1 = 0.00987 | – | 762.8 ± 0.38
x1 = 0.01974 | 779.714 ± 0.36 | –
x1 = 0.02015 | – | 770.008 ± 0.37
x1 = 0.02827 | 785.631 ± 0.35 | –
x1 = 0.03912 | 793.054 ± 0.34 | –
x1 = 0.04049 | – | 783.973 ± 0.35
x1 = 0.04976 | 800.23 ± 0.34 | –
x1 = 0.04999 | – | 790.403 ± 0.35
x1 = 0.05955 | 806.732 ± 0.33 | –
x1 = 0.05968 | – | 796.854 ± 0.34
x1 = 0.06835 | 812.468 ± 0.33 | –
x1 = 0.06983 | – | 803.478 ± 0.33
x1 = 0.07649 | – | 807.807 ± 0.33
x1 = 0.08237 | 821.557 ± 0.32 | –
x1 = 0.09048 | – | 816.808 ± 0.32
x1 = 0.09065 | 826.854 ± 0.31 | –
x1 = 0.09974 | 832.541 ± 0.31 | –
x1 = 0.1015 | – | 823.802 ± 0.31
x1 = 0.1473 | 861.545 ± 0.28 | –
x1 = 0.1527 | – | 855.059 ± 0.28
x1 = 0.2011 | – | 882.847 ± 0.27
x1 = 0.2018 | 892.585 ± 0.26 | –
x1 = 0.2502 | – | 909.428 ± 0.25
x1 = 0.2509 | 919.09 ± 0.25 | –
x1 = 0.2971 | – | 933.541 ± 0.26
x1 = 0.2983 | 943.362 ± 0.24 | –
x1 = 0.4008 | 991.468 ± 0.25 | –
x1 = 0.4037 | – | 983.751 ± 0.28
x1 = 0.4905 | 1029.07 ± 0.3 | –
x1 = 0.5036 | – | 1025.46 ± 0.36
x1 = 0.5979 | 1069.65 ± 0.28 | –
x1 = 0.6004 | – | 1061.56 ± 0.45
x1 = 0.6902 | 1101.28 ± 0.28 | –
x1 = 0.7016 | – | 1095.76 ± 0.54
x1 = 0.7903 | 1132.31 ± 0.29 | –
x1 = 0.7997 | – | 1125.73 ± 0.65
x1 = 0.9005 | – | 1153.94 ± 0.3
x1 = 0.901 | 1163.56 ± 0.31 | –
x1 = 0.9113 | – | 1156.82 ± 0.77
x1 = 0.9121 | 1166.51 ± 0.32 | –
x1 = 0.9218 | 1169.02 ± 0.32 | –
x1 = 0.9302 | 1171.25 ± 0.33 | –
x1 = 0.934 | – | 1162.75 ± 0.78
x1 = 0.9408 | – | 1164.5 ± 0.31
x1 = 0.9411 | 1174.08 ± 0.32 | –
x1 = 0.9504 | 1176.45 ± 0.33 | –
x1 = 0.9519 | – | 1167.38 ± 0.81
x1 = 0.9608 | – | 1169.62 ± 0.32
x1 = 0.9609 | 1179.12 ± 0.33 | –
x1 = 0.9707 | – | 1172.11 ± 0.83
x1 = 0.9715 | 1181.77 ± 0.34 | –
x1 = 0.9815 | 1184.24 ± 0.34 | 1174.79 ± 0.33
x1 = 0.9908 | – | 1177.08 ± 0.86
x1 = 1 | 1188.73 ± 0.34 | 1179.31 ± 0.33
